{"source": "patent US9201173B2", "about": "“Polarizer protective film, polarizer, and liquid crystal display device” (FUJIFILM CORPORATION, priority 2010, dated 2015)", "assay": "Acid dissociation constant by alkali titration", "assay_type": "physicochemical", "conditions": "mixed solvent of tetrahydrofuran/water=6/4 by volume at 25° C.", "experimental": "For measurement of the acid dissociation constant in the invention, employed is the alkali titration method described in Experimental Chemistry Course, 2nd Ed., pp. 215-217 (published by Maruzen).\nThe organic acid A is Tokyo Chemical's 1-benzyl-5-phenylbarbituric acid, and its acid dissociation constant in a mixed solvent of tetrahydrofuran/water=6/4 by volume at 25° C. is 4.0.", "data": [{"smiles": "O=C1NC(=O)N(Cc2ccccc2)C(=O)C1c1ccccc1", "note": "(stereo not shown) [organic acid A, 1-benzyl-5-phenylbarbituric acid]", "values": [{"measurement": "acid dissociation constant", "value": 4.0}]}]}
